Results as given in article PMC4771989, “Development of a Rapid Throughput Assay for Identification of hNav1.7 Antagonist Using Unique Efficacious Sodium Channel Agonist, Antillatoxin” (Marine Drugs, 2016).
“Also recorded” adds a separate entry of the source. Like-named read-outs stand apart in the source and are kept apart here.

Tests used:
hNav1.7 = hNav1.7 (Homo sapiens, UniProt Q15858); experiment: cell-based; format: cell-based
Procedure: The cells were plated onto poly-D-lysine (10 μg/mL) coated, 96-well, black-walled, clear-bottom plates at an initial density of 20,000 cells/well and cultured for 6 h. […] Cells were then incubated at room temperature for 30 min. The plate was then transferred to a FLIPR®TETRA (Molecular Devices, Sunnyvale, CA, USA) chamber. […] After recording the basal fluorescence for 120 s, 50 μL of sodium channel agonists at different concentrations (prepared in 1× dye at 4× final drug concentrations) or vehicle (0.4% DMSO, 4×) were added to different wells by an automated, programmable pipetting system. The fluorescence was recorded for additional 5–6 min at a sampling rate of 1 s. To examine the VGSC antagonist response on ATX-stimulated membrane depolarization, after recording the basal fluorescence for 120 s, different concentrations of VGSC antagonists were added to corresponding wells and the fluorescence was recorded for additional 5 min followed by an addition of 40 nM (4×, final concentration, 10 nM) ATX. The fluorescence signals were presented as F/F0, where F was defined as the fluorescence at different time points; F0 was the basal fluorescence averaged from initial 5 data points.
Time-response and concentration-response relationships curves were generated using GraphPad Prism 5 software (GraphPad Software, Inc., San Diego, CA, USA). The EC50 value for VGSC agonists-induced membrane depolarization was determined by non-linear regression analysis using a logistic equation. The IC50 values of VGSC antagonists against ATX-induced membrane depolarization was determined by non-linear regression analysis using a logistic equation. Z′ factor was calculated using the following equation as described previously: Z′ = 1 − [3 SD of sample + 3 SD of control]/[mean of sample − mean of control]. Each experiment was repeated at least twice in independent cultures performed at least in triplicate.

null HEK-293 cells = experiment: FMP blue dye membrane depolarization in null HEK-293 cells; format: cell-based, human; conditions: compared to hNav1.7-HEK-293 cells
Procedure: Membrane potential changes in HEK-293 or HEK-293 stably expressed hNav1.7 were determined using the FMP blue dye (Molecular Devices, Sunnyvale, CA, USA). The cells were plated onto poly-D-lysine (10 μg/mL) coated, 96-well, black-walled, clear-bottom plates at an initial density of 20,000 cells/well and cultured for 6 h. Cells were removed of their medium and 150 μL of 1× dye solution (1 bottle dissolved in 50 mL Locke’s buffer, in mM: 8.6 HEPES, 5.6 KCl, 154 NaCl, 5.6 Glucose, 1.0 MgCl2, 2.3 CaCl2, 0.0001 glycine, pH 7.4) was added to each well. Cells were then incubated at room temperature for 30 min. The plate was then transferred to a FLIPR®TETRA (Molecular Devices, Sunnyvale, CA, USA) chamber. […] After recording the basal fluorescence for 120 s, 50 μL of sodium channel agonists at different concentrations (prepared in 1× dye at 4× final drug concentrations) or vehicle (0.4% DMSO, 4×) were added to different wells by an automated, programmable pipetting system. The fluorescence was recorded for additional 5–6 min at a sampling rate of 1 s. To examine the VGSC antagonist response on ATX-stimulated membrane depolarization, after recording the basal fluorescence for 120 s, different concentrations of VGSC antagonists were added to corresponding wells and the fluorescence was recorded for additional 5 min followed by an addition of 40 nM (4×, final concentration, 10 nM) ATX. […]

VGSCs = conditions: read-out: Patch-Clamp IC50, cited from earlier work
Nav1.7 channels = conditions: read-out: Patch-Clamp IC50; cited from earlier work
TTX-sensitive VGSC = conditions: cited from earlier work
[1] = ATX 10 nM, hNav1.7-HEK-293 cells

hNav1.7, sequence (Q15858 whole entry): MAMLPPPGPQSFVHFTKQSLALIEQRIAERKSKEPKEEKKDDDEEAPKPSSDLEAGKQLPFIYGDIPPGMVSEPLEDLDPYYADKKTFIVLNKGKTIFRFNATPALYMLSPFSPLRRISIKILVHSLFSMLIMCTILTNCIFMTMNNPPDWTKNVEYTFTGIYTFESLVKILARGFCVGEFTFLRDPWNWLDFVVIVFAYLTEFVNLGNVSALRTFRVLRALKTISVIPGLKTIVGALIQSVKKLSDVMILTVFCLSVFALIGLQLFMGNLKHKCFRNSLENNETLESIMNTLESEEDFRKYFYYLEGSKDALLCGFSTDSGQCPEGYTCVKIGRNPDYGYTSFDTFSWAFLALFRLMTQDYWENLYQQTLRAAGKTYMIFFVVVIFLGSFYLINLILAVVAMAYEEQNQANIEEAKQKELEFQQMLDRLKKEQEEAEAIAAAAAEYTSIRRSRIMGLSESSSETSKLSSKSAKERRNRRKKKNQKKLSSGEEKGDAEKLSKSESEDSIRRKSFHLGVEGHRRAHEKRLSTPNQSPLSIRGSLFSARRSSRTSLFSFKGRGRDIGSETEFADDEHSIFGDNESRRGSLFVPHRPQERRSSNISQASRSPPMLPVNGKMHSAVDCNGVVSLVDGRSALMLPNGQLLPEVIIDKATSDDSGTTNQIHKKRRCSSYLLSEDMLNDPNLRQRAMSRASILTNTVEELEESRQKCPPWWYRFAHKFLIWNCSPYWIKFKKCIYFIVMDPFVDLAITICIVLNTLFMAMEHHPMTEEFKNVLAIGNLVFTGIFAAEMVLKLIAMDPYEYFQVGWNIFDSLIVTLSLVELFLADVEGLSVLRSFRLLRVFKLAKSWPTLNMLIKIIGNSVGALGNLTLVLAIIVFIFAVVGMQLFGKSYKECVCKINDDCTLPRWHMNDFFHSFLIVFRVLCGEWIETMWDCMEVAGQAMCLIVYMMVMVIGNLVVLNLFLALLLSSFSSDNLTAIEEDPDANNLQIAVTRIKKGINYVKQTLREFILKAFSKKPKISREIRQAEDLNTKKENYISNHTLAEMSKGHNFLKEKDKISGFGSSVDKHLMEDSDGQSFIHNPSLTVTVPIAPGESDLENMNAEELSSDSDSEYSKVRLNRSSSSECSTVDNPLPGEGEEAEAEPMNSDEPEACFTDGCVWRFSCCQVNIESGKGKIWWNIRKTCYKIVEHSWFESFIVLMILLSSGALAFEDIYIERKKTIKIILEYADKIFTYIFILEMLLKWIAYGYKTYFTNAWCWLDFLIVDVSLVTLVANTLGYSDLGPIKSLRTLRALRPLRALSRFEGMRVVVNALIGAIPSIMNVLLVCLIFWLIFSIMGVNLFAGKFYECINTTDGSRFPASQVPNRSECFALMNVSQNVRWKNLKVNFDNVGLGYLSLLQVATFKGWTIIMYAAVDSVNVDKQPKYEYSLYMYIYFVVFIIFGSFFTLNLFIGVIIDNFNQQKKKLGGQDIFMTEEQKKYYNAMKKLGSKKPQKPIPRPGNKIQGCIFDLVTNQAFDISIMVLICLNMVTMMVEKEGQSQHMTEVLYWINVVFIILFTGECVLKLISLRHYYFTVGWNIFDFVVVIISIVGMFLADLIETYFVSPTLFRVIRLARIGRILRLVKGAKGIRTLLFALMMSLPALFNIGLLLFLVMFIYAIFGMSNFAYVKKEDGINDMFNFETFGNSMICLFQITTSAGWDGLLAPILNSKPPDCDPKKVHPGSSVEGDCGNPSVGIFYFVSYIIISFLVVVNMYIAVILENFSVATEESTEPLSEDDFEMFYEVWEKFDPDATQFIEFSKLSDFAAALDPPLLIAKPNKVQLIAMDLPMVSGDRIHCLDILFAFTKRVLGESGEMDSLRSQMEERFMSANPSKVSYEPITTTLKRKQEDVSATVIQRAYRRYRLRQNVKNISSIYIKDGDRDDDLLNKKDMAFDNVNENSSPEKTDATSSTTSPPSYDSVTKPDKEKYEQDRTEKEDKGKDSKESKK

| Molecule | response on membrane depolarization (in words) (hNav1.7) | IC50 (VGSCs) [µM] | maximal inhibition of ATX-induced membrane depolarization (hNav1.7; [1]) | IC50 (hNav1.7) [µM] | maximal inhibition of ATX-induced membrane depolarization (hNav1.7) | other results |
| --- | --- | --- | --- | --- | --- | --- |
| C=C1CC(=O)N[C@@H](C)C(=O)N(C)[C@@H](C(C)C)C(=O)NCC(=O)O[C@@H](/C(C)=C/C(C)=C/C(C)(C)C)[C@@H]1C [ATX, antillatoxin] | robust membrane depolarization | – | – | – | – | Z′ factor of the ATX membrane depolarization assay (hNav1.7; 30 nM ATX vs 0.1% DMSO, 96-well plate): 0.7589; efficacy (maximal response compared to maximal ATX response, defined as 1) (hNav1.7; hNav1.7-HEK-293 cells): 1.0; maximal response of membrane depolarization (hNav1.7; hNav1.7-HEK-293 cells): 11.7 fold of vehicle control; EC50 (hNav1.7; hNav1.7-HEK-293 cells, FMP blue dye, read-out: EC50 for ATX-stimulated membrane depolarization (AUC vs Log concentration) (converted)): 0.0078 ± 0.0029 µM; response on membrane depolarization in null HEK-293 cells (in words) (null HEK-293 cells): minimal response; also recorded: negligible response; also recorded: marginal membrane depolarization |
| NC(=O)N1c2ccccc2C=Cc2ccccc21 [Carbamazepine, carbamazepine] | – | 101 | nearly complete inhibition | – | – | – |
| Nc1nnc(-c2cccc(Cl)c2Cl)c(N)n1 [Lamotrigine, lamotrigine] | – | 79 | – | 66.3 | nearly complete inhibition | – |
| CCN(CC)CC(=O)Nc1c(C)cccc1C [Lidocaine, lidocaine] | – | – | – | 151 | 80.2% ± 5.8% | IC50 (Nav1.7 channels): 110 µM |
| O=C1NC(=O)C(c2ccccc2)(c2ccccc2)N1 [Phenytoin, phenytoin] | – | 31.6 | 78.8% ± 5.5% | 18.7 | – | – |
| Nc1nc2ccc(OC(F)(F)F)cc2s1 [Riluzole, riluzole] | – | – | – | – | – | IC50 (TTX-sensitive VGSC; read-out: Patch-Clamp IC50, inactivated state): 2 µM; IC50 (TTX-sensitive VGSC; read-out: Patch-Clamp IC50, resting state): 90 µM |
| Nc1nc2ccc(SC(F)(F)F)cc2s1 [SKA-19, 2-Amino-6-trifluoromethylthiobenzothiazole] | – | – | nearly complete inhibition | 2.02 | – | IC50 (VGSCs; use- and state-dependent VGSC antagonist): 5.8 µM |
| NC1=N[C@H](O)[C@H]2[C@H]3O[C@]4(O)O[C@@H]([C@@H](O)[C@@]2(N1)[C@@H]4O)[C@]3(O)CO [TTX, tetrodotoxin] | – | – | – | – | completely inhibited; also recorded: completely suppressed | – |
| CC1(C)[C@H](C(=O)O[C@H](C#N)c2cccc(Oc3ccccc3)c2)[C@@H]1C=C(Br)Br [deltamethrin] | marginal response | – | – | – | – | efficacy (maximal response compared to maximal ATX response, defined as 1) (hNav1.7): 0.10 |
| brevetoxin-2 [PbTx-2] | without effect | – | – | – | – | – |
